Laboratory results as given in patent US10112899B2 (ViiV HEALTHCARE UK LIMITED, priority 2014, dated 2018).

System: HIV in the HTLV-1 transformed cell line MT-4
Assay: organism not typed
Assay type: cell-based
Details: MT-4 cells, luciferase/cell titer glo readout after 96 hours, 10 point dose response

SMILES | IC50 (MT4, 96 h) | IC50
Cc1ccc(-c2c(C)c3c(c(C)c2[C@H](OC(C)(C)C)C(=O)O)CN(C2CCCC(c4ccccc4)C2)C3)cc1 (stereo partly drawn) [Example 31, (2S)-2-(tert-butoxy)-2-(4,7-dimethyl-2-(3-phenylcyclohexyl)-6-(p-tolyl)isoindolin-5-yl)acetic acid] | 203 nM | –
Cc1ccc(-c2c(C)c3c(c(C)c2[C@H](OC(C)(C)C)C(=O)O)CN(C2CCC[C@@H](C)C2)C3)cc1 (stereo partly drawn) [Example 32, (2S)-2-(tert-butoxy)-2-(4,7-dimethyl-2-((3R)-3-methylcyclohexyl)-6-(p-tolyl)isoindolin-5-yl)acetic acid] | 723 nM | –
Cc1ccc(-c2c(C)c3c(c(C)c2[C@H](OC(C)(C)C)C(=O)O)CN(C(=O)N[C@H]2CC[C@H](C)CC2)C3)cc1 [Example 33, (S)-2-(tert-butoxy)-2-(4,7-dimethyl-2-(((1r,4S)-4-methylcyclohexyl)carbamoyl)-6-(p-tolyl)isoindolin-5-yl)acetic acid] | 616 nM | –
Cc1ccc(-c2c(C)c3c(c(C)c2[C@H](OC(C)(C)C)C(=O)O)CN(C(=O)NCc2ccccc2)C3)cc1 [Example 34, (S)-2-(2-(benzylcarbamoyl)-4,7-dimethyl-6-(p-tolyl)isoindolin-5-yl)-2-(tert-butoxy)acetic acid] | 86 nM | –
Cc1ccc(-c2c(C)c3c(c(C)c2[C@H](OC(C)(C)C)C(=O)O)CN(C(=O)N2CCCC2)C3)cc1 [Example 35, (S)-2-(tert-butoxy)-2-(4,7-dimethyl-2-(pyrrolidine-1-carbonyl)-6-(p-tolyl)isoindolin-5-yl)acetic acid] | 12 nM | –
Cc1ccc(-c2c(C)c3c(c(C)c2[C@H](OC(C)(C)C)C(=O)O)CN([C@@H]2CCC[C@@H](C)C2)C3)cc1 [Example 37, (2S)-2-(tert-butoxy)-2-{4,7-dimethyl-2-[(1R,3R)-3-methylcyclohexyl]-6-(4-methylphenyl)-2,3-dihydro-1H-isoindol-5-yl}acetic acid] | – | 723 nM
Cc1ccc(-c2c(C)c3c(c(C)c2[C@H](OC(C)(C)C)C(=O)O)CN(CCCc2cccc(F)c2)C3)cc1 [Example 38, (2S)-2-(tert-butoxy)-2-{2-[3-(3-fluorophenyl)propyl]-4,7-dimethyl-6-(4-methylphenyl)-2,3-dihydro-1H-isoindol-5-yl}acetic acid] | 1230 nM | –
Cc1ccc(-c2c(C)c3c(c(C)c2[C@H](OC(C)(C)C)C(=O)O)CN(CCc2ccccc2)C3)cc1 [Example 39, (2S)-2-(tert-butoxy)-2-[4,7-dimethyl-6-(4-methylphenyl)-2-(2-phenylethyl)-2,3-dihydro-1H-isoindol-5-yl]acetic acid] | 872 nM | –
Cc1ccc(-c2c(C)c3c(c(C)c2[C@H](OC(C)(C)C)C(=O)O)CN(CC2CCCN2C(=O)OC(C)(C)C)C3)cc1 (stereo partly drawn) [Example 40, (2S)-2-(tert-butoxy)-2-[2-({1-[(tert-butoxy)carbonyl]pyrrolidin-2-yl}methyl)-4,7-dimethyl-6-(4-methylphenyl)-2,3-dihydro-1H-isoindol-5-yl]acetic acid] | 3430 nM | –
Cc1ccc(-c2c(C)c3c(c(C)c2[C@H](OC(C)(C)C)C(=O)O)CN(Cc2cccnc2)C3)cc1 [Example 41, (2S)-2-(tert-butoxy)-2-[4,7-dimethyl-6-(4-methylphenyl)-2-(pyridin-3-ylmethyl)-2,3-dihydro-1H-isoindol-5-yl]acetic acid] | 50 nM | –
CNC(=O)c1cccc(CN2Cc3c(C)c(-c4ccc(C)cc4)c([C@H](OC(C)(C)C)C(=O)O)c(C)c3C2)c1 [Example 43, (2S)-2-(tert-butoxy)-2-(4,7-dimethyl-2-{[3-(methylcarbamoyl)phenyl]methyl}-6-(4-methylphenyl)-2,3-dihydro-1H-isoindol-5-yl)acetic acid] | 937 nM | –
Cc1ccc(-c2c(C)c3c(c(C)c2[C@H](OC(C)(C)C)C(=O)O)CN(Cc2cccc(C(=O)N4CCCCC4)c2)C3)cc1 [Example 44, (2S)-2-(tert-butoxy)-2-[4,7-dimethyl-6-(4-methylphenyl)-2-{[3-(piperidine-1-carbonyl)phenyl]methyl}-2,3-dihydro-1H-isoindol-5-yl]acetic acid] | 3350 nM | –
Cc1ccc(-c2c(C)c3c(c(C)c2[C@H](OC(C)(C)C)C(=O)O)CN(Cc2cccc(Cl)c2)C3)cc1 [Example 45, (2S)-2-(tert-butoxy)-2-{2-[(3-chlorophenyl)methyl]-4,7-dimethyl-6-(4-methylphenyl)-2,3-dihydro-1H-isoindol-5-yl}acetic acid] | 43 nM | –
Cc1ccc(-c2c(C)c3c(c(C)c2[C@H](OC(C)(C)C)C(=O)O)CN(Cc2cccc(N4CCOCC4)c2)C3)cc1 [Example 46, (2S)-2-(tert-butoxy)-2-[4,7-dimethyl-6-(4-methylphenyl)-2-{[3-(morpholin-4-yl)phenyl]methyl}-2,3-dihydro-1H-isoindol-5-yl]acetic acid] | 4080 nM | –
Cc1ccc(-c2c(C)c3c(c(C)c2[C@H](OC(C)(C)C)C(=O)O)CN(Cc2cccc(F)c2C)C3)cc1 [Example 47, (2S)-2-(tert-butoxy)-2-{2-[(3-fluoro-2-methylphenyl)methyl]-4,7-dimethyl-6-(4-methylphenyl)-2,3-dihydro-1H-isoindol-5-yl}acetic acid] | 44 nM | –
COC(=O)N1Cc2c(C)c(-c3ccc(C)cc3)c([C@H](OC(C)(C)C)C(=O)O)c(C)c2C1 [Example 48, (2S)-2-(tert-butoxy)-2-[2-(methoxycarbonyl)-4,7-dimethyl-6-(4-methylphenyl)-2,3-dihydro-1H-isoindol-5-yl]acetic acid] | 573 nM | –
Cc1ccc(-c2c(C)c3c(c(C)c2[C@H](OC(C)(C)C)C(=O)O)CN(S(=O)(=O)c2ccc(F)cc2)C3)cc1 [Example 49, (2S)-2-(tert-butoxy)-2-[2-(4-fluorobenzenesulfonyl)-4,7-dimethyl-6-(4-methylphenyl)-2,3-dihydro-1H-isoindol-5-yl]acetic acid] | 100 nM | –
Cc1ccc(-c2c(C)c3c(c(C)c2[C@H](OC(C)(C)C)C(=O)O)CN(S(=O)(=O)N2CCCCC2)C3)cc1 [Example 50, (2S)-2-(tert-butoxy)-2-[4,7-dimethyl-6-(4-methylphenyl)-2-(piperidine-1-sulfonyl)-2,3-dihydro-1H-isoindol-5-yl]acetic acid] | 29 nM | –
Cc1ccc(-c2c(C)c3c(c(C)c2[C@H](OC(C)(C)C)C(=O)O)CN(S(=O)(=O)NC(C)C)C3)cc1 [Example 51, (2S)-2-(tert-butoxy)-2-[4,7-dimethyl-6-(4-methylphenyl)-2-[(propan-2-yl)sulfamoyl]-2,3-dihydro-1H-isoindol-5-yl]acetic acid] | 44 nM | –
Cc1ccc(-c2c(C)c3c(c(C)c2[C@H](OC(C)(C)C)C(=O)O)CN(S(=O)(=O)N2CCOCC2)C3)cc1 [Example 52, (2S)-2-(tert-butoxy)-2-[4,7-dimethyl-6-(4-methylphenyl)-2-(morpholine-4-sulfonyl)-2,3-dihydro-1H-isoindol-5-yl]acetic acid] | 18 nM | –
Cc1ccc(-c2c(C)c3c(c(C)c2[C@H](OC(C)(C)C)C(=O)O)CN(Cc2ccc(F)c(F)c2)C3)cc1 [Example 53, (2S)-2-(tert-butoxy)-2-{2-[(3,4-difluorophenyl)methyl]-4,7-dimethyl-6-(4-methylphenyl)-2,3-dihydro-1H-isoindol-5-yl}acetic acid] | 51 nM | –
Cc1ccc(-c2c(C)c3c(c(C)c2[C@H](OC(C)(C)C)C(=O)O)CN(C(=O)NC2CCC(C)CC2)C3)cc1 (stereo partly drawn) [Example 54, (2S)-2-(tert-butoxy)-2-[4,7-dimethyl-6-(4-methylphenyl)-2-{[(1r,4r)-4-methylcyclohexyl]carbamoyl}-2,3-dihydro-1H-isoindol-5-yl]acetic acid] | 288 nM | –
Cc1ccc(-c2c(C)c3c(c(C)c2[C@H](OC(C)(C)C)C(=O)O)CN(C(=O)N2CCOCC2)C3)cc1 [Example 57, (2S)-2-(tert-butoxy)-2-[4,7-dimethyl-6-(4-methylphenyl)-2-(morpholine-4-carbonyl)-2,3-dihydro-1H-isoindol-5-yl]acetic acid] | 44 nM | –
Cc1ccc(-c2c(C)c3c(c(C)c2[C@H](OC(C)(C)C)C(=O)O)CN(C(=O)NCC2CCCCC2)C3)cc1 [Example 58, (2S)-2-(tert-butoxy)-2-{2-[(cyclohexylmethyl)carbamoyl]-4,7-dimethyl-6-(4-methylphenyl)-2,3-dihydro-1H-isoindol-5-yl}acetic acid] | 350 nM | –
Cc1ccc(-c2c(C)c3c(c(C)c2[C@H](OC(C)(C)C)C(=O)O)CN(C(=O)N(C)C)C3)cc1 [Example 59, (2S)-2-(tert-butoxy)-2-[2-(dimethylcarbamoyl)-4,7-dimethyl-6-(4-methylphenyl)-2,3-dihydro-1H-isoindol-5-yl]acetic acid] | 279 nM | –
Cc1ccc(-c2c(C)c3c(c(C)c2[C@H](OC(C)(C)C)C(=O)O)CN(C(=O)N2CCCCCC2)C3)cc1 [Example 60, (2S)-2-[2-(azepane-1-carbonyl)-4,7-dimethyl-6-(4-methylphenyl)-2,3-dihydro-1H-isoindol-5-yl]-2-(tert-butoxy)acetic acid] | 14 nM | –
Cc1ccc(-c2c(C)c3c(c(C)c2[C@H](OC(C)(C)C)C(=O)O)CN(C(=O)N2CCC2)C3)cc1 [Example 61, (2S)-2-[2-(azetidine-1-carbonyl)-4,7-dimethyl-6-(4-methylphenyl)-2,3-dihydro-1H-isoindol-5-yl]-2-(tert-butoxy)acetic acid] | 38 nM | –
COCCN(C)C(=O)N1Cc2c(C)c(-c3ccc(C)cc3)c([C@H](OC(C)(C)C)C(=O)O)c(C)c2C1 [Example 62, (2S)-2-(tert-butoxy)-2-{2-[(2-methoxyethyl)(methyl)carbamoyl]-4,7-dimethyl-6-(4-methylphenyl)-2,3-dihydro-1H-isoindol-5-yl}acetic acid] | 44 nM | –
Cc1ccc(-c2c(C)c3c(c(C)c2[C@H](OC(C)(C)C)C(=O)O)CN(C(=O)NC(C)(C)C)C3)cc1 [Example 63] | 15 nM | –
Cc1ccc(-c2c(C)c3c(c(C)c2[C@H](OC(C)(C)C)C(=O)O)CN(C(=O)N2CCS(=O)(=O)CC2)C3)cc1 [Example 64, (2S)-2-(tert-butoxy)-2-[2-(1,1-dioxo-1λ^6,4-thiomorpholine-4-carbonyl)-4,7-dimethyl-6-(4-methylphenyl)-2,3-dihydro-1H-isoindol-5-yl]acetic acid] | 106 nM | –
